What was measured:
[1] = molecular target: T1, HuD (Homo sapiens, UniProt P26378); experiment: REMSA of purified HuD with Cy3 AU-rich RNA probe; type: biochemical
T1 construct: gene ELAVL4; HuD-His, expressed in HEK293T cells and purified

[2] = molecular target: T2, HuR (Homo sapiens, UniProt Q15717); experiment: REMSA of recombinant HuR with Cy3 AU-rich RNA probe at equilibrium; type: biochemical
T2 construct: gene ELAVL1; recombinant HuR (HuR-cMyc-His)

[3] = molecular target: HuR M1_M2 (human, UniProt Q15717 1-197); experiment: equilibrium binding, assay not stated (REMSA or AlphaScreen); no DHTS; DHTS inhibits, Ki 4.12 nM; REMSA/AlphaScreen buffers as in ref 23 (not given); pull-down lysates: 20 mM HEPES pH 7.5, 50 mM KCl, 0.5 ug BSA, 0.25% glycerol, 4 C; settings: protein: recombinant; tags: His; label: 5'-Cy3; single strand
[4] = molecular target: HuR M2_M3 (human, UniProt Q15717 117-326); experiment: equilibrium binding, assay not stated (REMSA or AlphaScreen); no DHTS; limited effect of DHTS; REMSA/AlphaScreen buffers as in ref 23 (not given); pull-down lysates: 20 mM HEPES pH 7.5, 50 mM KCl, 0.5 ug BSA, 0.25% glycerol, 4 C; settings: protein: recombinant; tags: His; label: 5'-Cy3; single strand
HuR M2_M3, sequence (Q15717 117-326): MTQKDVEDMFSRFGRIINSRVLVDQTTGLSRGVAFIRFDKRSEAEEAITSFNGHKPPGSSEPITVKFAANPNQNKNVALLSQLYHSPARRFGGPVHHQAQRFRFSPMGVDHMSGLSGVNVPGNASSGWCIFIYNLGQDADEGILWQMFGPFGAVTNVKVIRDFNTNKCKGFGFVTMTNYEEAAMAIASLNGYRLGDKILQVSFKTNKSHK

T2 sequence (Q15717 2-326): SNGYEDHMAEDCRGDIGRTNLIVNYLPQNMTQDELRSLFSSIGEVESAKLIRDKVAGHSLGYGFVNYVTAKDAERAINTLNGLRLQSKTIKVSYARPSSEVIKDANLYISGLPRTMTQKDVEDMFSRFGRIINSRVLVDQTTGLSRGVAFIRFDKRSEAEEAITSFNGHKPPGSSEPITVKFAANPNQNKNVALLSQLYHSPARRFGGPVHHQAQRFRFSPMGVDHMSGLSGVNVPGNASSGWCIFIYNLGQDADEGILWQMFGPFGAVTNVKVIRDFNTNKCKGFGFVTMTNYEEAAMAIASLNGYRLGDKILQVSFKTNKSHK
T1 sequence (P26378 whole entry): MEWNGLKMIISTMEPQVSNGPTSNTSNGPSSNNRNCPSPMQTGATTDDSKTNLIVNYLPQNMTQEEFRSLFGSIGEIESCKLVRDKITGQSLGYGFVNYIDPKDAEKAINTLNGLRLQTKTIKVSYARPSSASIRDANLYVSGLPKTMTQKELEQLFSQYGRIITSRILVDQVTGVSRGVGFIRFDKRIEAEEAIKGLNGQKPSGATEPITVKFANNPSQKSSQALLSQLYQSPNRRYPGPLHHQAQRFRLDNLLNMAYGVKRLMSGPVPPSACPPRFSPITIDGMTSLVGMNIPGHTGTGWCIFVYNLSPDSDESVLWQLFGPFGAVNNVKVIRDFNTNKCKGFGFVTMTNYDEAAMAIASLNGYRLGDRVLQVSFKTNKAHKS
HuR M1_M2, sequence (Q15717 1-197): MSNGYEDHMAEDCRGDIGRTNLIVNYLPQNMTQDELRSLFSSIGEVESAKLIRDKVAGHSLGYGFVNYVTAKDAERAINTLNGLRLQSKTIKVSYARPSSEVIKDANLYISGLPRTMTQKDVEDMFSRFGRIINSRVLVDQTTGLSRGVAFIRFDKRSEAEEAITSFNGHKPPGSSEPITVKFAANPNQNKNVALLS

Molecule	REMSA of recombinant HuR with Cy3 AU-rich RNA probe at equilibrium [2]	further results
Cc1cccc2c3c(ccc12)C1=C(C(=O)C3=O)[C@@H](C)CO1 [15,16-dihydrotanshinone-I]		REMSA of purified HuD with Cy3 AU-rich RNA probe [1]: only HuD-RNA complex formation was affected by DHTS at the reference doses
C[C@H]1COC2=C1C(=O)C(=O)c1c2ccc2c1CCCC2(C)C [Cryptotanshinone]	while cryptotanshinone and tanshinone IIA were less potent (micromolar range)	
Cc1coc2c1C(=O)C(=O)c1c-2ccc2c(C)cccc12 [TanI, Tanshinone I]	the potency of tanshinone I was comparable to DHTS at equilibrium (Fig. 2B)	
Cc1coc2c1C(=O)C(=O)c1c-2ccc2c1CCCC2(C)C [TanII, Tanshinone IIA]	while cryptotanshinone and tanshinone IIA were less potent (micromolar range)	
AUUAUUUAUUAUUUAUUUAUUAUUUA (ssRNA) [Cy3 TNF ARE RNA probe]		Kd [3]: 0.00266 µM; Kd [4]: ~0.024 µM

— article PMC4639722, “Dihydrotanshinone-I interferes with the RNA-binding activity of HuR affecting its post-transcriptional function” (Scientific Reports, 2015)
